Results: patent US20100233456A1, “LIGHT-STABILIZED POLYPROPYLENE” (SUMITOMO CHEMICAL COMPANY, LIMITED, priority 2007, published 2010)

Key:
[1] = Rate of weight loss by TG/DTA; type: physicochemical; details: heated in nitrogen gas from 25° C. to 300° C. at 10° C./minute
Method: Regarding the requirement (c), the rate of decrease in weight by heating under the above conditions is preferably less than 5%, and further preferably less than 3%, from a viewpoint of an emission amount of VOC and light stability. A rate of decrease in weight of the hindered amine light stabilizer (B) is measured using a thermo gravimetry differential thermal analyzer (hereinafter, referred to as TG/DTA). Specifically, the hindered amine light stabilizer (B) is heated from 25° C. to 300° C. at a rate of 10° C./minute in a nitrogen gas atmosphere, which gas is flowed at a constant rate of 100 mL/minute, thereby measuring the rate (percentage) of a weight loss to the original weight with a thermobalance.

[2] = Acid dissociation constant (pKa) by titration method
Method: The pKa value is an index showing an inherent nature of the compound having a 2,2,6,6-tetramethylpiperidyl group represented by the general formula (I), and is measured by a titration method known in the art, which is a measurement method of an acid dissociation constant based on a Brøsted's definition.

| Molecule | Rate of weight loss by TG-DTA [1] [%] | pKa [2] |
| --- | --- | --- |
| CC(C)(C)c1ccc(OC(=O)c2cc(C(C)(C)C)c(O)c(C(C)(C)C)c2)c(C(C)(C)C)c1 [Example B-6, 2,4-di-t-butylphenyl-3,5-di-t-butyl-4-hydroxybenzoate] | 31.6 | – |
| CC1(C)CC(OC(=O)CCCCCCCCC(=O)OC2CC(C)(C)NC(C)(C)C2)CC(C)(C)N1 [Example B-3, bis(2,2,6,6-tetramethyl-4-piperidyl) sebacate] | 19.6 | – |
| CCCCCCCCON1C(C)(C)CC(OC(=O)CCCCCCCCC(=O)OC2CC(C)(C)N(OCCCCCCCC)C(C)(C)C2)CC1(C)C [Example B-4, bis(1-octyloxy-2,2,6,6-tetramethylpiperidin-4-yl) sebacate] | 68.6 | – |
| CN1C(C)(C)CC(OC(=O)CC(C(=O)OC2CC(C)(C)N(C)C(C)(C)C2)C(CC(=O)OC2CC(C)(C)N(C)C(C)(C)C2)C(=O)OC2CC(C)(C)N(C)C(C)(C)C2)CC1(C)C (stereo not shown) [Example B-2, tetrakis(1,2,2,6,6-pentamethyl-4-piperidyl) 1,2,3,4-buteane tetracarboxylate] | 5.8 | 8.9 |
| N,N-bis(3-aminopropyl)ethylenediamine. 2,4-bis[N-butyl-N-(1,2,2,6,6-pentamethyl-4-piperidyl)amino]-6-chloro-1,3,5-triazine condensate [Example B-5] | 0.6 | 9.2 |
